Laboratory results: the NIST ThermoML archive (doi:10.1021/je900676b)

Experiment: heat capacity at constant pressure per volume
Settings: 10000 kPa, Liquid, Tian-Calvet differential microcalorimeter

CCCCCCCCn1cc[n+](C)c1.O=S(=O)([N-]S(=O)(=O)C(F)(F)F)C(F)(F)F
Settings | heat capacity [J/K/m3]
325 K | 1950000
337.36 K | 1964000
349.71 K | 1973000
362.07 K | 1984000
374.43 K | 1993000
386.8 K | 2004000
399.16 K | 2012000
411.52 K | 2018000
423.88 K | 2029000
436.25 K | 2036000
448.61 K | 2049000
460.97 K | 2049000
473.33 K | 2053000
485.69 K | 2056000
498.06 K | 2068000
510.42 K | 2069000
522.79 K | 2084000
535.15 K | 2082000
547.51 K | 2099000
554.94 K | 2098000

CCCCCC[n+]1ccn(C)c1.O=S(=O)([N-]S(=O)(=O)C(F)(F)F)C(F)(F)F
Settings | heat capacity [J/K/m3]
325.02 K | 1953000
337.38 K | 1966000
349.75 K | 1972000
362.12 K | 1982000
374.48 K | 1989000
386.84 K | 2004000
399.19 K | 2009000
411.56 K | 2021000
423.91 K | 2034000
436.27 K | 2038000
448.63 K | 2053000
460.99 K | 2050000
473.35 K | 2051000
485.72 K | 2055000
498.09 K | 2067000
510.46 K | 2066000
522.84 K | 2081000
535.2 K | 2079000
547.56 K | 2096000
554.94 K | 2121000
